Where two headings read alike, the source gives them in different places. Starred links: 1 amine or outer side, 2 acyl side, 3 side chain; linkers in the order of their positions; H or OH if unused. Positions of bridges follow the written chain, without caps; N, C: chain ends. Non-standard residues stand in square brackets, D forms with d. Residues, ends and D or L forms follow the SMILES beside them. Groups on a side chain read outwards from the residue. *: point of attachment. CH3O(CH2CH2O)11CH2CH2CO = COCCOCCOCCOCCOCCOCCOCCOCCOCCOCCOCCOCCC(=O)*; X1 = C[N+](C)(CCNC(=O)CCCCCCCCCCCCCCCCC(=O)O)CC(=O)*; Nva(5-morpholino) = N[C@@H](CCCN1CCOCC1)C(=O)O; C18 diacid = O=C(O)CCCCCCCCCCCCCCCCC(=O)*; Dip = N[C@H](C(=O)O)C(c1ccccc1)c1ccccc1; γGlu = O=C(O)[C@H](CCC(=O)[*:2])N[*:1]; Ethylenediamine = C(CN[*:2])N[*:1]; Palmitoyl = CCCCCCCCCCCCCCCC(=O)*; NMeI = CC[C@H](C)[C@H](NC)C(=O)O; dNMeQ = CN[C@H](CCC(N)=O)C(=O)O; β3hF = N[C@H](CC(=O)O)Cc1ccccc1; dNMeL = CN[C@H](CC(C)C)C(=O)O; NMeK = CN[C@@H](CCCCN)C(=O)O; αMeK = C[C@](N)(CCCCN)C(=O)O; Isovaleryl = CC(C)CC(=O)*; hCys = N[C@@H](CCS)C(=O)O; Dap = NC[C@H](N)C(=O)O; AEEA = NCCOCCOCC(=O)O; Ahx = NCCCCCC(=O)O
Columns and labels:
[1] = target: T1, ferroportin (Homo sapiens, UniProt Q9NP59); assay: FPN activity assay: ferroportin-GFP internalization/degradation in HEK293 cells; format: cell-based; parameters: expressed in transfected cells; conditions: read-out: FPN IC50
T1 sequence (Q9NP59 1-571): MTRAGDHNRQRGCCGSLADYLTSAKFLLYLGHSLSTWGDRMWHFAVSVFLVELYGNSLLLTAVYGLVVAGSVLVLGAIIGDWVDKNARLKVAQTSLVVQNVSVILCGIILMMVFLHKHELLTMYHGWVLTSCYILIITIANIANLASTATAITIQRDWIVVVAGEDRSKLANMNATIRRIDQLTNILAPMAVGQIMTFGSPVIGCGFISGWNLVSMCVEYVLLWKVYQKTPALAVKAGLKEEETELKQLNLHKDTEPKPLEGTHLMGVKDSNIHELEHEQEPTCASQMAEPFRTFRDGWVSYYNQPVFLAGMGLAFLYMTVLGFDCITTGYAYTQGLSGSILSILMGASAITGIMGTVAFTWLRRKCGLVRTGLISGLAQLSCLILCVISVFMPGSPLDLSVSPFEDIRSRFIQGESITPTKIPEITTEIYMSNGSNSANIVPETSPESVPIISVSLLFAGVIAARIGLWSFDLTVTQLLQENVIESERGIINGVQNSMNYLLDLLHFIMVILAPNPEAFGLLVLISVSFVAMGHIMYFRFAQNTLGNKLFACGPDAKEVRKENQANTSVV
Method: Following internalization, the ferroporin protein is degraded.
A retro inverse peptide is a peptide with a reversed sequence in all D amino acids. An example is that Hy-Glu-Thr-His-NH2 becomes Hy-DHis-DThr-DGlu-NH2. The EC50 of these reference compounds for ferroportin internalization/degradation was determined according to the FPN activity assay described above. These peptides served as control standards.

[2] = target: T1, ferroportin; assay: T47D cell-based ferroportin internalization assay in presence of mouse serum albumin (MSA); parameters: a human breast carcinoma adherent cell line which endogenously expresses ferroportin; host or cells: T47D
Outline: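 Peptide potency for inducing ferroportin internalization was measured in T47D cells in the presence of serum albumin. Cells grown in RPMI with fetal bovine serum were seeded in 96-well plates at 80-100 k cells per well in 100 ul and rested overnight. Dilution series of test peptides were preincubated 30 min at room temperature, then added to the cells after the medium was aspirated.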

[3] = ferroportin-GFP internalization/degradation, HEK293 cells, Table 6E
[4] = T47D internalization assay in presence of mouse serum albumin (MSA), Table 6E
[5] = Table 6E, ferroportin-GFP internalization/degradation, at least 18 hours incubation
[6] = Table 6E, T47D internalization assay with MSA

SMILES | DC50 [1, 3] [nM] | IC50 [2, 4] [nM] | further results
CCCCCCCCCCCCCCCC(=O)NCCCCCC(=O)NCCCC[C@H]1C(=O)N[C@@H](C(c2ccccc2)c2ccccc2)C(=O)NCCNC(=O)CC[C@H](NC(=O)CC(C)C)C(=O)N[C@@H]([C@@H](C)O)C(=O)N[C@@H](Cc2c[nH]cn2)C(=O)N[C@@H](C(c2ccccc2)c2ccccc2)C(=O)N2CCC[C@H]2C(=O)N[C@H]2CSSC[C@H](NC2=O)C(=O)N1C [compound 161] (Isovaleryl-ETH[Dip]PCC[NMeK]([Ahx-Palmitoyl])[Dip]; linker 1-C via Ethylenediamine; disulfide 6-7) |  |  | DC50 [1, 5]: 1 to 10 nM; IC50 [2, 6]: 10 to 100 nM
CC[C@H](C)[C@@H](C(N)=O)N(C)C(=O)[C@@H](CCCCN)NC(=O)C[C@H](Cc1ccccc1)NC(=O)[C@H](CCCCNC(=O)COCCOCCNC(=O)COCCOCCNC(=O)[C@H](CN)NC(=O)CCCCCCCCCCCCCCCCC(=O)O)N(C)C(=O)[C@@H]1CSSC[C@H](NC(=O)[C@@H]2CCCN2C(=O)[C@@H](NC(=O)[C@H](Cc2c[nH]cn2)NC(=O)[C@@H](NC(=O)[C@H](CCC(=O)O)NC(=O)CC(C)C)[C@@H](C)O)C(c2ccccc2)c2ccccc2)C(=O)N1 [compound 262] (Isovaleryl-ETH[Dip]PCC[NMeK]([AEEA-AEEA-Dap-C18 diacid])[β3hF][dK][NMeI]-NH2; disulfide 6-7) | 10 to 100 | 10 to 100 | 
CC(C)CC(=O)N[C@@H](CCC(=O)O)C(=O)N[C@H](C(=O)N[C@@H](Cc1cnc[nH]1)C(=O)N[C@H](C(=O)N1CCC[C@H]1C(=O)N[C@H]1CSSC[C@@H](C(=O)N(C)[C@@H](CCCCNC(=O)COCCOCCNC(=O)COCCOCCNC(=O)[C@H](CN)NC(=O)CCCCCCCCCCCCCCCCC(=O)O)C(=O)N[C@H](CC(=O)N[C@H](CCCCN)C(=O)N(C)[C@H](CC(C)C)C(N)=O)Cc2ccccc2)NC1=O)C(c1ccccc1)c1ccccc1)[C@@H](C)O [compound 249] (Isovaleryl-ETH[Dip]PCC[NMeK]([AEEA-AEEA-Dap-C18 diacid])[β3hF][dK][dNMeL]-NH2; disulfide 6-7) | 10 to 100 | 10 to 100 | 
CCCCCCCCCCCCCCCC(=O)N[C@@H](CCC(=O)NCCCC[C@@H](C(=O)N[C@H](CC(=O)N[C@H](CCCCNC(=O)CCOCCOCCOCCOCCOCCOCCOCCOCCOCCOCCOCCOC)C(N)=O)Cc1ccccc1)N(C)C(=O)[C@@H]1CSSC[C@H](NC(=O)[C@@H]2CCCN2C(=O)[C@@H](NC(=O)[C@H](Cc2cnc[nH]2)NC(=O)[C@@H](NC(=O)[C@H](CCC(=O)O)NC(=O)CC(C)C)[C@@H](C)O)C(c2ccccc2)c2ccccc2)C(=O)N1)C(=O)O [compound 222] (Isovaleryl-ETH[Dip]PCC[NMeK]([γGlu-Palmitoyl])[β3hF][dK](CH3O(CH2CH2O)11CH2CH2CO)-NH2; disulfide 6-7) |  |  | DC50 [1, 5]: 10 to 100 nM; IC50 [2, 6]: 1 to 10 nM
COC(=O)CCC(CCCC(C)C)C(=O)N[C@H](C(=O)N[C@@H](Cc1c[nH]cn1)C(=O)N[C@H](C(=O)N1CCC[C@H]1C(=O)N[C@H]1CSSC[C@@H](C(=O)N(C)[C@@H](CCCCNC(=O)CCCCCNC(=O)C[N+](C)(C)CCNC(=O)CCCCCCCCCCCCCCCCC(=O)O)C(=O)N[C@H](C(=O)N[C@H](CCCCN)C(N)=O)C(c2ccccc2)c2ccccc2)NC1=O)C(c1ccccc1)c1ccccc1)[C@@H](C)O (single isomer, unassigned) [compound 138] |  |  | DC50 [1, 5]: 10 to 100 nM; IC50 [2, 6]: 100 to 500 nM
CC(C)CC(=O)N[C@@H](CCC(=O)O)C(=O)N[C@H](C(=O)N[C@@H](Cc1c[nH]cn1)C(=O)N[C@H](C(=O)N1CCC[C@H]1C(=O)N[C@H]1CSSC[C@@H](C(=O)N(C)[C@@H](CCCCNC(=O)COCCOCCNC(=O)COCCOCCNC(=O)[C@H](CN)NC(=O)CCCCCCCCCCCCCCCCC(=O)O)C(=O)N[C@H](CC(=O)N[C@H](CCCCN)C(=O)N(C)[C@H](CCC(N)=O)C(N)=O)Cc2ccccc2)NC1=O)C(c1ccccc1)c1ccccc1)[C@@H](C)O [compound 248] (Isovaleryl-ETH[Dip]PCC[NMeK]([AEEA-AEEA-Dap-C18 diacid])[β3hF][dK][dNMeQ]-NH2; disulfide 6-7) | 10 to 100 | 10 to 100 | 
CC[C@H](C)[C@@H]1NC(=O)[C@@H](NC(=O)[C@@H]2CCCN2C(=O)[C@@H](NC(=O)[C@H](Cc2c[nH]cn2)NC(=O)[C@@H](NC(=O)[C@H](CCC(=O)O)NC(=O)CC(C)C)[C@@H](C)O)C(c2ccccc2)c2ccccc2)CSSC[C@@H](C(N)=O)NC(=O)C[C@H](Cc2ccccc2)NC(=O)[C@H](CCCCNC(=O)COCCOCCNC(=O)COCCOCCNC(=O)CCCCCNC(=O)CCCCCCCCCCCCCCCCC(=O)O)NC1=O [Compd 23] (Isovaleryl-ETH[Dip]PCIK([AEEA-AEEA-Ahx-C18 diacid])[β3hF]C-NH2; disulfide 6-10) |  |  | DC50 ([1]; ferroportin-GFP HEK293 cells, at least 18 hours): 10 to 100 nM; IC50 ([2]; T47D cells, 0.5% mouse serum albumin, 1 hr incubation): 10 to 100 nM

Further lines, with some results ahead:

DC50 [1, 3] [nM] | IC50 [2, 4] [nM] | SMILES | further results
10 to 100 | 10 to 100 | CC(C)CC(=O)N[C@@H](CCC(=O)O)C(=O)N[C@H](C(=O)N[C@@H](Cc1c[nH]cn1)C(=O)N[C@H](C(=O)N1CCC[C@H]1C(=O)N[C@H]1CSSC[C@@H](C(=O)N(C)[C@@H](CCCCNC(=O)COCCOCCNC(=O)COCCOCCNC(=O)[C@H](CN)NC(=O)CCCCCCCCCCCCCCCCC(=O)O)C(=O)N[C@H](CC(=O)N[C@@H](CCCN2CCOCC2)C(N)=O)Cc2ccccc2)NC1=O)C(c1ccccc1)c1ccccc1)[C@@H](C)O [compound 265] (Isovaleryl-ETH[Dip]PCC[NMeK]([AEEA-AEEA-Dap-C18 diacid])[β3hF][Nva(5-morpholino)]-NH2; disulfide 6-7) | 
10 to 100 | 10 to 100 | CC(C)CC(=O)N[C@@H](CCC(=O)O)C(=O)N[C@H](C(=O)N[C@@H](Cc1cnc[nH]1)C(=O)N[C@H](C(=O)N1CCC[C@H]1C(=O)N[C@H]1CSSC[C@@H](C(=O)N(C)[C@@H](CCCCNC(=O)COCCOCCNC(=O)COCCOCCNC(=O)C[N+](C)(C)CCNC(=O)CCCCCCCCCCCCCCCCC(=O)O)C(=O)N[C@H](CC(=O)N[C@H](CCCCN)C(N)=O)Cc2ccccc2)NC1=O)C(c1ccccc1)c1ccccc1)[C@@H](C)O [compound 283] (Isovaleryl-ETH[Dip]PCC[NMeK]([AEEA-AEEA-X1])[β3hF][dK]-NH2; disulfide 6-7) | 
10 to 100 | 10 to 100 | COC(=O)CC[C@H](NC(=O)CC(C)C)C(=O)N[C@H](C(=O)N[C@@H](Cc1c[nH]cn1)C(=O)N[C@H](C(=O)N1CCC[C@H]1C(=O)N[C@H]1CSSC[C@@H](C(=O)N[C@@](C)(CCCCNC(=O)COCCOCCNC(=O)COCCOCCNC(=O)[C@H](CN)NC(=O)CCCCCCCCCCCCCCCCC(=O)O)C(=O)N[C@H](CC(=O)N[C@H](CCCCN)C(N)=O)Cc2ccccc2)NC1=O)C(c1ccccc1)c1ccccc1)[C@@H](C)O [compound 301] (Isovaleryl-E(OMe)TH[Dip]PCC[αMeK]([AEEA-AEEA-Dap-C18 diacid])[β3hF][dK]-NH2; disulfide 6-7) | 
10 to 100 | 10 to 100 | CC(C)CC(=O)N[C@@H](CCC(=O)O)C(=O)N[C@H](C(=O)N[C@@H](Cc1c[nH]cn1)C(=O)N[C@H](C(=O)N1CCC[C@H]1C(=O)N[C@H]1CSSC[C@@H](C(=O)N[C@@](C)(CCCCNC(=O)COCCOCCNC(=O)COCCOCCNC(=O)[C@H](CN)NC(=O)CCCCCCCCCCCCCCCCC(=O)O)C(=O)N[C@H](CC(=O)N[C@H](CCCCN)C(N)=O)Cc2ccccc2)NC1=O)C(c1ccccc1)c1ccccc1)[C@@H](C)O [compound 302] (Isovaleryl-ETH[Dip]PCC[αMeK]([AEEA-AEEA-Dap-C18 diacid])[β3hF][dK]-NH2; disulfide 6-7) | 
1 to 10 | 10 to 100 | CC(C)CC(=O)N[C@@H](CCC(=O)O)C(=O)N[C@H](C(=O)N[C@@H](Cc1c[nH]cn1)C(=O)N[C@H](C(=O)N1CCC[C@H]1C(=O)N[C@H]1CSSC[C@@H](C(=O)N(C)[C@@H](CCCCNC(=O)COCCOCCNC(=O)COCCOCCNC(=O)[C@H](CN)NC(=O)CCCCCCCCCCCCCCCCC(=O)O)C(=O)N[C@H](C(=O)N[C@H](CCCCN)C(N)=O)C(c2ccccc2)c2ccccc2)NC1=O)C(c1ccccc1)c1ccccc1)[C@@H](C)O [compound 293] (Isovaleryl-ETH[Dip]PCC[NMeK]([AEEA-AEEA-Dap-C18 diacid])[Dip][dK]-NH2; disulfide 6-7) | 
10 to 100 | 10 to 100 | CC(C)CC(=O)N[C@@H](CCC(=O)O)C(=O)N[C@H](C(=O)N[C@@H](Cc1c[nH]cn1)C(=O)N[C@H](C(=O)N1CCC[C@H]1C(=O)N[C@H]1CCSSCC[C@@H](C(=O)N(C)[C@@H](CCCCNC(=O)COCCOCCNC(=O)COCCOCCNC(=O)[C@H](CN)NC(=O)CCCCCCCCCCCCCCCCC(=O)O)C(=O)N[C@H](CC(=O)N[C@H](CCCCN)C(N)=O)Cc2ccccc2)NC1=O)C(c1ccccc1)c1ccccc1)[C@@H](C)O [compound 269] (Isovaleryl-ETH[Dip]P[hCys][hCys][NMeK]([AEEA-AEEA-Dap-C18 diacid])[β3hF][dK]-NH2; disulfide 6-7) | 

Source: patent US20250277012A1 (Protagonist Therapeutics, Inc., priority 2021, published 2025)
